Assay results: patent publication US20260217767A1, “NOVEL A4B7 THIOETHER PEPTIDE DIMER ANTAGONISTS” (Protagonist Therapeutics, Inc., priority 2014, published 2026)
*1 amine or outer side, *2 acyl side, *3 side chain or, on linkers, in order; H or OH if unused. Where a SMILES comes first, the peptide text is derived from it. Bridges are numbered along the chain shown (N, C = ends). Roman numbers before positions name the chains, in order. [ ]: non-standard residue; d: D form. Phe(4-tBu) = CC(C)(C)c1ccc(C[C@H](N)C(=O)O)cc1; Bip = N[C@@H](Cc1ccc(-c2ccccc2)cc1)C(=O)O; Diglycolyl = O=C(COCC(=O)[*:2])[*:1]; NMeR = CN[C@@H](CCCNC(=N)N)C(=O)O; Tic = O=C(O)[C@@H]1Cc2ccccc2CN1; β3hE = N[C@@H](CCC(=O)O)CC(=O)O; X1 = O=C(c1ccccc1C[*:2])[*:1]; Pen = CC(C)(S)[C@H](N)C(=O)O

Experiments:
[1] = Simulated Gastric Fluid (SGF) Stability Assay; format: in vitro ADME; settings: pig, pH 2, 37° C., dimers, Table 7; for half-life: simulated gastric fluid (with porcine pepsin); for half-life at 20 μM: simulated gastric fluid (SGF) with porcine pepsin
Method: Simulated Gastric Fluid (SGF) Stability Assays
Studies were carried out in simulated gastric fluid (SGF) to evaluate intestinal stability of the peptide molecules of the instant invention. SGF was prepared by adding 20 mg NaCl, 32 mg porcine pepsin (MP Biochemicals, catalog 02102599), and 70 μl HCl to 10 ml water (final pH=2). Aliquots of SGF (0.5 ml each) were pre-warmed at 37° C. To start the reaction, 1 μl of peptide stock solution (10 mM in DMSO) was added to 0.5 ml SGF and thoroughly mixed such that the final peptide concentration was 20 μM. The reactions were incubated at 37° C. with gentle shaking. At each time point (0, 15, 30, 60 min) 50 μl aliquots were removed and added to 200 μl acetonitrile containing 0.1% formic acid to quench the reaction. Samples are stored at 4° C. until the end of the experiment and centrifuged at 10,000 rpm for 5 minutes. Aliquots of the supernatant were removed, diluted 1:1 into distilled water containing internal standard, and analyzed by LCMS/MS. Percent remaining at each timepoint was calculated based on the peak area response ratio of test to compound to internal standard. Time 0 was set to 100%, and all later timepoints were calculated relative to time 0. Half-lives were calculated by fitting to a first-order exponential decay equation using GraphPad.

[2] = tested on: CD4+/CD45RO+ memory T cells; test: PBMC Memory T Cell Adhesion Assay; format: cell-based, human; settings: thioether monomer peptides, Table 6
Method: PBMC Memory T Cell Adhesion Assay
Fresh CD4+/CD45RO+ memory T cells were isolated from human peripheral blood mononuclear cell (PBMC) donors by Aragen Bioscience Inc. (Morgan Hill, CA). The assay plate was prepared using IgG Fc capture antibody (donkey anti human) immobilized at 500 ng/well in 50 mM sodium bicarbonate buffer, pH 9.5, ON, 4 C onto a Greiner Fluotrac plate (100 ul per well). The plate was rinsed two time with Blocking Buffer (25 mM Tris HCl, pH7.5, 150 mM NaCl, 1.5% BSA, 0.05% Tween), and blocked with Blocking Buffer for 2 hours at 37 C or 5 hours at RT using 200 ul per well. The Blocking Buffer was removed and either MAdCAM-1 or VCAM-1 at 400 ng/well in Blocking Buffer was added and the plate incubated overnight at 4 C (100 ul per well). The plate was washed two times with Blocking Buffer, and rinsed once with 200 ul Binding Media (DMEM phenol red free, 10 mM HEPES, 1×Na pyruvate, 1× Glutamine, and supplemented with 1 mM MnC12 prior to use). To prepare cells, approximately 25 million CD4+/CD45RO+ memory T cells were counted by trypan blue exclusion using a haemocytometer to determine viability and cell count. The cells were transferred to a 50 ml conical tube, and centrifuged at 1200 rpm for 10 minute. The media was aspirated and the cell pellet resuspended in 15 ml Binding Media. The cells were centrifuged again and resuspended in the appropriate amount of Binding Media to be used for assays (50 ul of cells per well at 2× the final density). To each well, and equal volume (50 ul) of test compound was added and the plate was incubated for 1.5 hours at 37 C, 5% CO2. Each well was rinsed 3× with 150 ul per well of Binding Media. […] The plate was incubated at 37 C, 5% CO2, for 45 minutes. The plate was protected from light by using black adhesive seals. Fluorescence intensity was measured using a Molecular Devices Gemini EM Fluorescent Plate Reader (Ex 485/Em530, Bottom Read, Reading Sensitivity=20). IC50 curves are generated using Graph Pad Prism and the curves analyzed using analyzed using a non-linear regression (four parameters) algorithm. The log (concentration) versus RFU (Ex485/Em530) was plotted to determine IC50 values.

Structure (SMILES)	half-life [1] [min]	IC50 [2] [nM]	other results
CC(C)C[C@@H]1NC(=O)[C@H]([C@@H](C)O)NC(=O)[C@H](CC(=O)O)NC(=O)[C@H](CO)NC(=O)[C@H](CCCNC(=N)N)N(C)C(=O)c2ccccc2CSC(C)(C)[C@@H](C(=O)N[C@@H](Cc2ccc(-c3ccccc3)cc2)C(=O)N[C@H](CCC(=O)O)C(=O)N[C@H](CCCCNC(=O)COCC(=O)NCCCC[C@@H](NC(=O)[C@@H](CCC(=O)O)NC(=O)[C@H](Cc2ccc(-c3ccccc3)cc2)NC(=O)[C@H]2NC(=O)[C@H](CC(C)C)NC(=O)[C@H]([C@@H](C)O)NC(=O)[C@H](CC(=O)O)NC(=O)[C@H](CO)NC(=O)[C@H](CCCNC(=N)N)N(C)C(=O)c3ccccc3CSC2(C)C)C(=O)O)C(=O)O)NC1=O [compound 208] (I: [NMeR]SDTL[Pen][Bip][dE][dK]-OH / II: [NMeR]SDTL[Pen][Bip][dE][dK]-OH; linker I:9-II:9 via Diglycolyl; linker I:N-I:6, II:N-II:6 via X1)	> 180	–	–
CC(C)C[C@@H]1NC(=O)[C@H]([C@@H](C)O)NC(=O)[C@H](CC(=O)O)NC(=O)[C@H](CO)NC(=O)[C@H](CCCNC(=N)N)N(C)C(=O)c2ccccc2CSC(C)(C)[C@@H](C(=O)N[C@@H](Cc2ccccc2)C(=O)N[C@H](CCC(=O)O)C(=O)N[C@H](CCCCNC(=O)COCC(=O)NCCCC[C@@H](NC(=O)[C@@H](CCC(=O)O)NC(=O)[C@H](Cc2ccccc2)NC(=O)[C@H]2NC(=O)[C@H](CC(C)C)NC(=O)[C@H]([C@@H](C)O)NC(=O)[C@H](CC(=O)O)NC(=O)[C@H](CO)NC(=O)[C@H](CCCNC(=N)N)N(C)C(=O)c3ccccc3CSC2(C)C)C(=O)O)C(=O)O)NC1=O [compound 204] (I: [NMeR]SDTL[Pen]F[dE][dK]-OH / II: [NMeR]SDTL[Pen]F[dE][dK]-OH; linker I:9-II:9 via Diglycolyl; linker I:N-I:6, II:N-II:6 via X1)	> 180	–	–
CC(C)C[C@@H]1NC(=O)[C@H]([C@@H](C)O)NC(=O)[C@H](CC(=O)O)NC(=O)[C@H](CO)NC(=O)[C@H](CCCNC(=N)N)N(C)C(=O)c2ccccc2CSC(C)(C)[C@@H](C(=O)N[C@@H](Cc2ccc(-c3ccccc3)cc2)C(=O)N[C@@H](CCC(=O)O)CC(N)=O)NC1=O [compound 133] ([NMeR]SDTL[Pen][Bip][β3hE]-NH2; linker N-6 via X1)	–	100 to 1000	–
CC(C)C[C@@H]1NC(=O)[C@H]([C@@H](C)O)NC(=O)[C@H](CC(=O)O)NC(=O)[C@H](CO)NC(=O)[C@H](CCCNC(=N)N)N(C)C(=O)c2ccccc2CSC(C)(C)[C@@H](C(=O)N[C@@H](Cc2ccc(C(C)(C)C)cc2)C(=O)N[C@@H](CCC(=O)O)CC(N)=O)NC1=O [compound 134] ([NMeR]SDTL[Pen][Phe(4-tBu)][β3hE]-NH2; linker N-6 via X1)	–	25 to 100	–
CC(C)C[C@@H]1NC(=O)[C@H]([C@@H](C)O)NC(=O)[C@H](CC(=O)O)NC(=O)[C@H](CO)NC(=O)[C@H](CCCNC(=N)N)N(C)C(=O)c2ccccc2CSC(C)(C)[C@@H](C(=O)N[C@@H](Cc2c[nH]c3ccccc23)C(=O)N[C@H](CCC(=O)O)C(=O)N[C@@H](Cc2ccccc2)C(N)=O)NC1=O [compound 101] (HELM PEPTIDE1{[meR].S.D.T.L.[Pen].W.[dE].F.[am]}|CHEM1{[O=C(c1ccccc1C[*:2])[*:1]]}$PEPTIDE1,CHEM1,1:R1-1:R1|PEPTIDE1,CHEM1,6:R3-1:R2$$$V2.0)	–	100 to 1000	–
CC(C)C[C@@H]1NC(=O)[C@H]([C@@H](C)O)NC(=O)[C@H](CC(=O)O)NC(=O)[C@H](CO)NC(=O)[C@H](CCCNC(=N)N)N(C)C(=O)c2ccccc2CSC[C@@H](C(=O)N2Cc3ccccc3C[C@H]2C(=O)N[C@H](CCC(=O)O)C(=O)N[C@H](CCCCNC(=O)COCC(=O)NCCCC[C@@H](NC(=O)[C@@H](CCC(=O)O)NC(=O)[C@@H]2Cc3ccccc3CN2C(=O)[C@@H]2CSCc3ccccc3C(=O)N(C)[C@@H](CCCNC(=N)N)C(=O)N[C@@H](CO)C(=O)N[C@@H](CC(=O)O)C(=O)N[C@@H]([C@@H](C)O)C(=O)N[C@@H](CC(C)C)C(=O)N2)C(N)=O)C(N)=O)NC1=O [compound 184] (I: [NMeR]SDTLC[Tic][dE][dK]-NH2 / II: [NMeR]SDTLC[Tic][dE][dK]-NH2; linker I:9-II:9 via Diglycolyl; linker I:N-I:6, II:N-II:6 via X1)	–	–	half-life at 20 μM [1]: > 180 min
CC(C)C[C@@H]1NC(=O)[C@H]([C@@H](C)O)NC(=O)[C@H](CC(=O)O)NC(=O)[C@H](CO)NC(=O)[C@H](CCCNC(=N)N)N(C)C(=O)c2ccccc2CSC[C@@H](C(=O)N2Cc3ccccc3C[C@H]2C(=O)N[C@H](CCC(=O)O)C(=O)N[C@H](CCCCNC(=O)COCC(=O)NCCCC[C@@H](NC(=O)[C@@H](CCC(=O)O)NC(=O)[C@@H]2Cc3ccccc3CN2C(=O)[C@@H]2CSCc3ccccc3C(=O)N(C)[C@@H](CCCNC(=N)N)C(=O)N[C@@H](CO)C(=O)N[C@@H](CC(=O)O)C(=O)N[C@@H]([C@@H](C)O)C(=O)N[C@@H](CC(C)C)C(=O)N2)C(=O)O)C(=O)O)NC1=O [compound 207] (I: [NMeR]SDTLC[Tic][dE][dK]-OH / II: [NMeR]SDTLC[Tic][dE][dK]-OH; linker I:9-II:9 via Diglycolyl; linker I:N-I:6, II:N-II:6 via X1)	> 180	–	–
CC(C)C[C@@H]1NC(=O)[C@H]([C@@H](C)O)NC(=O)[C@H](CC(=O)O)NC(=O)[C@H](CO)NC(=O)[C@H](CCCNC(=N)N)N(C)C(=O)c2ccccc2CSC(C)(C)[C@@H](C(=O)N[C@@H](Cc2ccc(-c3ccccc3)cc2)C(=O)N[C@H](CCC(=O)O)C(=O)N[C@H](CCCCN)C(N)=O)NC1=O [compound 178] (HELM PEPTIDE1{[meR].S.D.T.L.[Pen].[O=C([C@H](Cc1ccc(-c2ccccc2)cc1)N[*:1])[*:2]].[dE].[dK].[am]}|CHEM1{[O=C(c1ccccc1C[*:2])[*:1]]}$PEPTIDE1,CHEM1,1:R1-1:R1|PEPTIDE1,CHEM1,6:R3-1:R2$$$V2.0)	–	–	half-life at 20 μM [1]: > 180 min
